Reference: PMC6269873, “Substituted 3-Benzylcoumarins as Allosteric MEK1 Inhibitors: Design, Synthesis and Biological Evaluation as Antiviral Agents” (Molecules, 2013)
Like-named read-outs stand apart in the source and are kept apart here.

How the values were obtained:
[1] = target: phosphorylated MEK1 (Homo sapiens, UniProt Q02750); assay: MEK1 binding assay (HTRF, tracer displacement); conditions: for inhibition at 2 µM: read-out: % binding (2 µM); for inhibition at 20 µM: read-out: % binding (20 µM)
Sequence of phosphorylated MEK1 (Q02750 whole entry): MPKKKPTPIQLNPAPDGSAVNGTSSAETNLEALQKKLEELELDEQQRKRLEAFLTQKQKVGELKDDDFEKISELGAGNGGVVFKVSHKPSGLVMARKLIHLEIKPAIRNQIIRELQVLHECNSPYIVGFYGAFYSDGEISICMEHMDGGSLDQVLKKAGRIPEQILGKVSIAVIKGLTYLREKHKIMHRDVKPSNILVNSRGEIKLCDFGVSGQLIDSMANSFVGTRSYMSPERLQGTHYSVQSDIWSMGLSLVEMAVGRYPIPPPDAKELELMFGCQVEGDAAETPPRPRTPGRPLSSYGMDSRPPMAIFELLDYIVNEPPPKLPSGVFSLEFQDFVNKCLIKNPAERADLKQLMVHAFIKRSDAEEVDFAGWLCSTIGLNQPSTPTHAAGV
Method: The homogeneous time resolved fluorescence (HTRF) assay was performed on a Proxiplate-384 F plus solid back plate (Perkin Elmer, Waltham, MA. USA) with 5 nM GST tagged phosphorylated MEK1 (GST-MEK1), 2 nM europium-labeled anti-GST antibody (Eu-anti-GST), 20 nM kinase tracer 236 and test compound at a variety of concentrations. In the reaction mixture, GST-MEK1 forms a complex with the Eu-anti-GST and the tracer. Excitation of europium (the donor) using a 340-nm excitation filter results in energy transfer to the fluorophore of the tracer. This energy transfer is detected by an increase in the fluorescence emission of the tracer at 665 nm and a decrease in the fluorescence emission of europium at 615 nm. The FRET ratio was calculated by dividing the emission signal at 665 nm by the emission signal at 615 nm. A competitor compound such as a MEK inhibitor replaces the tracer from the complex and decreases the FRET ratio accordingly. The plate was incubated in dark at room temperature for 30 min before measuring the fluorescent emission of each well at 665 and 615 nm using a 340-nm excitation filter, 100-µs delay time, and 200-µs integration time, on a PHERAStar plate reader (BMG Labtech, Durham, NC, USA). […] Data shown as %Inhibition normalized to AZD6244 at 100 µM.

[2] = tested on: ERK pathway; assay: cells; type: cell-based, Human; conditions: for IC50: Homo sapiens, HEK293
Method: The effects of the inhibitors on the activation of ERK pathway were determined in TPA (12-O-tetradecanoylphorbol-13-acetate)-stimulated cells using the AP-1 luciferase reporter gene assay system. Activating protein-1 (AP-1) is the nuclear transcription factor which is a heterodimeric protein downstream of MAPK composed of dimers of the Fos and Jun proteins. The stable AP-1 dimers bind to DNA recognition elements (AP-1 response elements) and mediate transcriptional induction. AP-1 controls a number of cellular events including differentiation, proliferation and apoptosis. Simultaneously, the expression of AP-1 can be regulated in response to different extracellular stimuli, such as cytokines, growth factors, stress, and bacterial and viral infections. ERK pathway is the most important mediator which is closely related to these responses. Activation of ERK pathway causes induction of fos gene, and then the product heterodimerizes with the Jun protein to form the AP-1 dimers. These newly formed heterodimers can enhance the expression of c-jun through AP-1 binding sites in the c-jun promoter. TPA can increase levels of AP-1 proteins through activation of the ERK pathway.
3.4.2. AP-1 Luciferase Reporter Gene Assay
pAP1-Luc was constructed with pGL3-basic (Promega, Madison, WI. USA) and a fragment including the AP-1 response element (2× TRE) and T7 promoter. HEK 293 cells in 96-well plates were cultured at 5% CO2 at 37 °C in DMEM containing 10% FBS. When the confluence was up to 80%, cells were transinfected with pAP1-Luc using lipofectamine 2000 (Life Technologies, Carlsbad, CA. USA). At 24 h post transinfection, individual compounds with different concentrations (5, 10, 20, 30 μM) were added into cells using three wells for each concentration used. After incubation for 1 h, TPA (50 nM) was added. The cells were harvested after 4 h and luciferase activity was measured by using luciferase assay kit (Promega) with a luminometer.

[3] = tested on: EV71; assay: microbe, parasite or virus in culture
Method: To further examine the functional effects, we selected EV71 to perform the antiviral analysis. […] CC50 is the median cytotoxic concentration measured with the MTT assay.
RD cells were cultured in DMEM and up to 70%–80% confluence in 96-well plates. Compounds were added into the culture medium for 1 h prior to virus infection using four wells for each concentration used. The compounds were added at the following concentrations: 1.25, 2.5, 5, 10, 20, 40 μM. Then cells were infected withEV71 (a clinical strain denoted as EV71-BC08, GU475127) at a multiplicity of infection (MOI) of 1. Virus controls (untreated wells of infected cells), cell controls (cells and drugs only, using the same dilution range for each compound as the test wells) were included on the plate. The cytopathic effect (CPE) were examined at every 12 h intervals post-infection by using phase-contrast microscopy. […] The cytotoxicity (CC50) was assayed by the MTT method.

[4] = HTRF binding to GST tagged phosphorylated MEK1, read-out: IC50

## Cc1c(Cc2ccccc2)c(=O)oc2cc(OC(=O)N(C)C)c(Cl)cc12 [Compound 14, 3-Benzyl-6-chloro-4-methyl-2-oxo-2H-chromen-7-yl dimethylcarbamate]
[1]
  IC50: 307 nM
  inhibition at 2 µM: 66.3%
  inhibition at 20 µM: 80.8%
other
  melting point: 156 to 157 °C
[2]
  IC50: 30800 ± 1400 nM

## CCc1c(Cc2ccc(F)cc2)c(=O)oc2cc(OC(=O)c3ccccc3)ccc12 [Compound 67, 4-Ethyl-3-(4-fluorobenzyl)-2-oxo-2H-chromen-7-yl benzoate]
[1]
  binding affinity (in words): inactive
  inhibition at 2 µM: 44.6%
  inhibition at 20 µM: 21.3%
other
  melting point: 70 to 71 °C
[2]
  IC50: 64600 ± 1740 nM

## CCCC(=O)Oc1ccc2c(C)c(Cc3ccccc3)c(=O)oc2c1 [Compound 42, 3-Benzyl-4-methyl-2-oxo-2H-chromen-7-yl butyrate]
[1]; [4]
  IC50: 353 nM
[1]
  inhibition at 2 µM: 53.8%
  inhibition at 20 µM: 68.4%
other
  melting point: 139 to 140 °C
[2]
  IC50: 88700 ± 2520 nM

## CCCc1c(Cc2ccc(F)cc2)c(=O)oc2cc(OC(=O)CC)ccc12 [Compound 40, 3-(4-Fluorobenzyl)-2-oxo-4-propyl-2H-chromen-7-yl propionate]
[1]; [4]
  IC50: 176 nM
[1]
  inhibition at 2 µM: 72.2%
  inhibition at 20 µM: 78.5%
other
  melting point: 94 to 95 °C
[2]
  IC50: 87400 ± 1980 nM

## CC(=O)Oc1ccc2c(C)c(Cc3ccccc3)c(=O)oc2c1 [Compound 28, 3-Benzyl-4-methyl-2-oxo-2H-chromen-7-yl acetate]
[1]; [4]
  IC50: 520 nM
[1]
  inhibition at 2 µM: 72.2%
  inhibition at 20 µM: 96.5%
other
  melting point: 165 to 166 °C
[2]
  IC50: 37600 ± 1100 nM

## CCC(=O)Oc1ccc2c(C)c(Cc3ccc(F)cc3)c(=O)oc2c1 [Compound 38, 3-(4-Fluorobenzyl)-4-methyl-2-oxo-2H-chromen-7-yl propionate]
[1]; [4]
  IC50: 190 nM
[1]
  inhibition at 2 µM: 75.7%
  inhibition at 20 µM: 90.8%
other
  melting point: 115 to 116 °C
[2]
  IC50: 38100 ± 1260 nM

## CCc1c(Cc2ccccc2)c(=O)oc2cc(OC(C)=O)ccc12 [Compound 29, 3-Benzyl-4-ethyl-2-oxo-2H-chromen-7-yl acetate]
[1]; [4]
  IC50: 176 nM
[1]
  inhibition at 2 µM: 88.7%
  inhibition at 20 µM: 102%
other
  melting point: 123 to 125 °C
[2]
  IC50: 90500 ± 1830 nM

## CCC(=O)Oc1ccc2c(CC)c(Cc3ccccc3)c(=O)oc2c1 [Compound 36, 3-Benzyl-4-ethyl-2-oxo-2H-chromen-7-yl propionate]
[1]; [4]
  IC50: 391 nM
[1]
  inhibition at 2 µM: 81%
  inhibition at 20 µM: 87%
other
  melting point: 124 °C
[2]
  IC50: 49800 ± 1240 nM

## CCCC(=O)Oc1ccc2c(CC)c(Cc3ccccc3)c(=O)oc2c1 [Compound 43, 3-Benzyl-4-ethyl-2-oxo-2H-chromen-7-yl butyrateen-7-yl propionate]
[1]; [4]
  IC50: 473 nM
[1]
  inhibition at 2 µM: 45%
  inhibition at 20 µM: 54.7%
other
  melting point: 102 °C
[2]
  IC50: 85900 ± 1460 nM

## CCCC(=O)Oc1ccc2c(CCC)c(Cc3ccc(F)cc3)c(=O)oc2c1 [Compound 47, 3-(4-Fluorobenzyl)-2-oxo-4-propyl-2H-chromen-7-yl butyrate]
[1]; [4]
  IC50: 944 nM
[1]
  inhibition at 2 µM: 57%
  inhibition at 20 µM: 70.3%
other
  melting point: 88 to 90 °C

## CC(=O)Oc1ccc2c(C)c(Cc3ccc(F)cc3)c(=O)oc2c1 [Compound 31, 3-(4-Fluorobenzyl)-4-methyl-2-oxo-2H-chromen-7-yl acetate]
[1]; [4]
  IC50: 248 nM
[1]
  inhibition at 2 µM: 72.2%
  inhibition at 20 µM: 78.2%
[2]
  inhibition of ERK pathway activation (in words): more efficiently than U0126
  IC50: 15700 ± 1180 nM

## CCCc1c(Cc2ccccc2)c(=O)oc2cc(OC(=O)C(C)(C)C)ccc12 [Compound 58, 3-Benzyl-2-oxo-4-propyl-2H-chromen-7-yl pivalate]
[1]
  inhibition at 2 µM: 43.2%
  inhibition at 20 µM: 19.1%
other
  melting point: 138 to 139 °C

## Cc1c(Cc2ccc(F)cc2)c(=O)oc2cc(OC(=O)C(C)(C)C)ccc12 [Compound 60, 3-(4-Fluorobenzyl)-4-methyl-2-oxo-2H-chromen-7-yl pivalate]
[1]
  inhibition at 2 µM: 23.7%
  inhibition at 20 µM: 20.3%
other
  melting point: 136 to 138 °C

## CCCCC(=O)Oc1ccc2c(CCC)c(Cc3ccc(F)cc3)c(=O)oc2c1 [Compound 54, 3-(4-Fluorobenzyl)-2-oxo-4-propyl-2H-chromen-7-yl pentanoate]
[1]
  inhibition at 2 µM: 11.7%
  inhibition at 20 µM: 23.9%
other
  melting point: 68 to 70 °C

## CCCc1c(Cc2ccccc2)c(=O)oc2cc(OC(=O)N(CC)CC)ccc12 [Compound 23, 3-Benzyl-2-oxo-4-propyl-2H-chromen-7-yl diethylcarbamate]
[1]
  inhibition at 2 µM: 43.1%
  inhibition at 20 µM: 46.1%
other
  melting point: 112 to 113 °C

## CCCCC(=O)Oc1ccc2c(CC)c(Cc3ccc(F)cc3)c(=O)oc2c1 [Compound 52, 4-Ethyl-3-(4-fluorobenzyl)-2-oxo-2H-chromen-7-yl pentanoate]
[1]
  binding affinity (in words): inactive
  inhibition at 2 µM: 42.8%
  inhibition at 20 µM: 34%
other
  melting point: 70 to 71 °C

## Cc1c(Cc2ccccc2)c(=O)oc2cc(OC(=O)c3ccccc3)ccc12 [Compound 62, 3-Benzyl-4-methyl-2-oxo-2H-chromen-7-yl benzoate]
[1]
  inhibition at 2 µM: 4.07%
  inhibition at 20 µM: 31.1%
other
  melting point: 149 to 150 °C

## Cc1c(Cc2ccc(F)cc2)c(=O)oc2cc(OC(=O)c3ccccc3)ccc12 [Compound 66, 3-(4-Fluorobenzyl)-4-methyl-2-oxo-2H-chromen-7-yl benzoate]
[1]
  inhibition at 2 µM: 25.8%
  inhibition at 20 µM: 31%
other
  melting point: 151 to 153 °C

## CCCCC(=O)Oc1ccc2c(C)c(Cc3ccccc3)c(=O)oc2c1 [Compound 48, 3-Benzyl-4-methyl-2-oxo-2H-chromen-7-yl pentanoate]
[1]
  inhibition at 2 µM: 18.8%
  inhibition at 20 µM: 21.2%
other
  melting point: 110 to 111 °C

## Cc1c(Cc2ccc(F)cc2)c(=O)oc2cc(OC(=O)N(C)C)ccc12 [Compound 17, 3-(4-Fluorobenzyl)-4-methyl-2-oxo-2H-chromen-7-yl dimethylcarbamate]
[1]
  IC50: 408 nM
  inhibition at 2 µM: 71.6%
  inhibition at 20 µM: 82.1%
other
  melting point: 149 to 150 °C
[3]
  TI (CC50/IC50): 16.36
[3]; Enterovirus A, EV71, RD
  EC50: 5250 nM
[2]
  inhibition of ERK pathway activation (in words): more efficiently than U0126
  IC50: 4060 ± 3260 nM

## CCc1c(Cc2ccccc2)c(=O)oc2cc(OC(=O)C(C)(C)C)ccc12 [Compound 57, 3-Benzyl-4-ethyl-2-oxo-2H-chromen-7-yl pivalate]
[1]
  inhibition at 2 µM: 6.61%
  inhibition at 20 µM: 21%
other
  melting point: 105 to 106 °C

## CCC(=O)Oc1ccc2c(CC)c(Cc3ccc(F)cc3)c(=O)oc2c1 [Compound 39, 4-Ethyl-3-(4-fluorobenzyl)-2-oxo-2H-chromen-7-yl propionate]
[1]
  binding affinity (in words): active
  inhibition at 2 µM: 75.4%
  inhibition at 20 µM: 76.3%
[1]; [4]
  IC50: 140 nM
other
  melting point: 97 to 98 °C
